Test results taken from US11339193B2, “CDP protein secretion inhibitors” (KEZAR LIFE SCIENCES, priority 2018, dated 2022).
Where two headings read alike, the source gives them in different places. Square brackets hold non-standard residues; d marks the D form. Peptide text beside a SMILES is read from it. NMeTrp(1-(4-Br-benzyl)) = CN[C@@H](Cc1cn(Cc2ccc(Br)cc2)c2ccccc12)C(=O)O; Butanoyl(2R-oxy,4-CN) = N#CCC[C@@H](O)C(=O)O; Abu(4,4,4-F3) = N[C@@H](CC(F)(F)F)C(=O)O; Ala(cPr) = N[C@@H](CC1CC1)C(=O)O; tBuAla = CC(C)(C)C[C@H](N)C(=O)O; NMeL = CN[C@@H](CC(C)C)C(=O)O; NMeA = CN[C@@H](C)C(=O)O

How the values were obtained:
Format in all cases: cell-based
[1] = system: PD1-ss+10aa/Gaussia Luciferase; test: Dox induced PD1-ss-Gluc assay
In short: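 Stable Flp-In 293 T-REx line expressing doxycycline-inducible Gaussia luciferase fused to the PD1 signal sequence plus 10 amino acids. Cells plated the day before, then exposed to compound dilutions in DMSO/media containing doxycycline at 37 °C, 5% CO2.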

[2] = system: TNFα-FL/Gaussia Luciferase; test: Dox induced TNFα-FL-Gluc assay
In short: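 Stable Flp-In 293 T-REx line expressing full-length TNFα (aa 1-233) fused at its C-terminus to Gaussia luciferase under doxycycline-inducible control. Cells plated the day before, then given compound dilutions in DMSO/media containing doxycycline and incubated at 37 °C, 5% CO2.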

[3] = system: NCI-H929 multiple myeloma cell line; test: H929 assay (cell viability, Celltiter-Glo); details: Homo sapiens, read-out: H929 EC50
In short: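 Cells plated in RPMI 1640 with 10% FBS and 2 mM glutamine, treated with compound dilutions in DMSO/media. Incubation 48 h at 37° C, 5% CO2. Viability from luciferase luminescence signal.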

[4] = system: Prl-ss+10aa/Gaussia Luciferase; test: Prl-ss-Gluc assay (constitutively active or 24 hr Dox inducible)
In short: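 Stable Flp-In 293 T-REx lines express Prl signal sequence+10aa fused to Gaussia luciferase, either constitutively (pcDNA5/FRT) or under the T-REx promoter (pcDNA5/FRT/TO). Cells plated the day before; compounds in DMSO/media (with doxycycline for the inducible line, 24 h) incubated at 37 °C, 5% CO2.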

[5] = system: VCAMss+10aa/Gaussia Luciferase; test: VCAM-ss-Gluc assay (constitutively active or Dox induced); details: Flp-In 293 T-REx cells, 24 hours
Method: Assays Constitutively Active VCAM-ss-Gluc Assay
Transfected cells were selected for resistance to the selectable markers Hygromycin and Blasticidin to create a stable cell line that constitutively expressed the VCAMss+ 10aa/Gaussia Luciferase fusion protein. The day before assay, cells were trypsinized and plated in 384-well tissue culture plates. The next day, culture media was removed from the wells and replaced with fresh media. Compound dilutions in DMSO/media were added to the wells and incubated at 37° C., 5% CO2.
Dox Induced VCAM-ss-Gluc Assay
Transfected cells were selected for resistance to the selectable markers Hygromycin and Blasticidin to create a stable cell line that contained the VCAMss+10aa/Gaussia Luciferase cDNA insert whose expression was regulated under the T-REx™ system. The day before assay, cells were trypsinized and plated in 384-well tissue culture plates. The next day, compound dilutions in DMSO/media containing doxycycline were added to the wells and incubated at 37° C., 5% CO2.

HER3ss-Gluc = test: HER3ss assay
In short: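 HEK-293T T-REx cells were transiently transfected with HER3 signal sequence (plus four mature-domain residues) fused upstream of mature Gaussia luciferase. Cells were induced with doxycycline (1 μg/ml) and exposed to increasing compound concentrations for 24 h, then secreted luciferase in the conditioned medium was read by luminescence.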

[6] = system: BT474 breast tumor cell line; test: BT474 assay (Alamar blue); details: Homo sapiens, BT-474, 72 h
Method: (§1) BT474 is a human breast tumor cell line. JJN3 is a human plasma cell leukemia cell line. […] Cells were seeded at 100 000 cells/mL. Aliquots of 5000 cells (50 μL) were added to each well in black, clear bottom 96-well plates. Compounds or control (50 uL of 1% DMSO in cell culture medium) were added to the cells to the indicated final concentrations and cells were incubated for 72 h (unless otherwise specified). After incubation was complete, Alamar blue (10 uL of a 1 mg/mL solution) was added to each well and plates were incubated for 5 h. Fluorescence was then measured (excitation 545 nm, emission 590 nm) and is reported as […] normalized to DMSO control.

[7] = system: JJN3 plasma cell leukemia cell line; test: JJN-3 assay (Alamar blue); details: Homo sapiens, 72 h
Method: as §1

[8] = system: U266B1 multiple myeloma cell line; test: U266 assay (cell viability, Celltiter-Glo); details: Homo sapiens, U-266; 48 hours, cell viability
Method: Cells were plated in 384-well tissue culture plates and treated with compound dilutions in DMSO/media. Plates were incubated at 37° C., 5% CO2 for 48 hours. After 48 hours, Celltiter-Glo@ (Promega) was added to each well and luciferase signal was quantified using Tecan Infinite M1000 Pro for cell viability determination.

[9] = Flp-In 293 T-REx cells, doxycycline, 24 hours; read-out: PD1ss Gluc IC50
[10] = Flp-In 293 T-REx cells, doxycycline, 24 hours; read-out: TNFa FL Gluc IC50
[11] = NCI-H929, 48 hours, cell viability
[12] = Flp-In 293 T-REx cells, 24 hours; read-out: Prl IC50
[13] = HEK-293T T-rex cells, transient transfection, doxycycline, 24 h; read-out: HER3 ss IC50

Compound | IC50 [1, 9] [nM] | IC50 [2, 10] [nM] | EC50 [3, 11] [nM] | IC50 [4, 12] [nM] | IC50 [5] [nM] | IC50 (HER3ss-Gluc; [13]) [nM] | EC50 [6] [nM] | EC50 [7] [nM] | EC50 [8] [nM] | IC50 ([1]; read-out: PD1ss Gluc IC50; Flp-In 293 T-REx cells, doxycycline, 24 hours) [nM] | IC50 ([2]; read-out: TNFa FL Gluc IC50; Flp-In 293 T-REx cells, doxycycline, 24 hours) [nM] | EC50 ([3]; NCI-H929, 48 h) [nM] | IC50 ([4]; read-out: Prl IC50; Flp-In 293 T-REx cells, 24 hours) [nM] | IC50 (HER3ss-Gluc; read-out: HER3 ss IC50; HEK-293T T-rex cells, transient transfection, doxycycline, 24 h) [nM]
CC(C)C[C@@H]1NC(=O)[C@H](Cc2cn(Cc3ccc(F)cc3)c3ccccc23)N(C)C(=O)[C@H](CC(C)C)NC(=O)[C@H](CC(C)C)N(C)C(=O)[C@H](CC(C)C)NC(=O)[C@@H](CCC#N)OC(=O)[C@H](C)N(C)C1=O [C-12] (HELM PEPTIDE1{L.[meA].[N#CCC[C@@H](O[*:1])C(=O)[*:2]].L.[meL].L.[CN([C@@H](Cc1cn(Cc2ccc(F)cc2)c2ccccc12)C(=O)[*:2])[*:1]]}$PEPTIDE1,PEPTIDE1,1:R1-7:R2$$$V2.0) | 8 | 44 | 740 | 1110 | 230 | 31 | 627 | 71 | 6960 | – | – | – | – | –
CC(C)C[C@@H]1NC(=O)[C@H](Cc2cn(Cc3ccc(F)c(F)c3)c3ccccc23)N(C)C(=O)[C@H](CC(C)C)NC(=O)[C@H](CC(C)C)N(C)C(=O)[C@H](CC(C)C)NC(=O)[C@@H](CCC#N)OC(=O)[C@H](C)N(C)C1=O [C-28] (HELM PEPTIDE1{L.[meA].[N#CCC[C@@H](O[*:1])C(=O)[*:2]].L.[meL].L.[CN([C@@H](Cc1cn(Cc2ccc(F)c(F)c2)c2ccccc12)C(=O)[*:2])[*:1]]}$PEPTIDE1,PEPTIDE1,1:R1-7:R2$$$V2.0) | 27 | 125 | 611 | 428 | 61 | 60 | 940 | 140 | – | – | – | – | – | –
CC(C)C[C@@H]1NC(=O)[C@H](Cc2csc3ccccc23)N(C)C(=O)[C@H](CC(C)C)NC(=O)[C@H](CC(C)C)N(C)C(=O)[C@H](CC(C)C)NC(=O)[C@@H](CCC#N)OC(=O)[C@H](C)N(C)C1=O [C-29] (HELM PEPTIDE1{L.[meA].[N#CCC[C@@H](O[*:1])C(=O)[*:2]].L.[meL].L.[CN([C@@H](Cc1csc2ccccc12)C(=O)[*:2])[*:1]]}$PEPTIDE1,PEPTIDE1,1:R1-7:R2$$$V2.0) | 100 | 314 | 2640 | 3400 | 26 | 22 | 1340 | 316 | – | – | – | – | – | –
CC(C)C[C@@H]1NC(=O)[C@H](Cc2cn(Cc3cncc(F)c3)c3ccccc23)N(C)C(=O)[C@H](CC(C)C)NC(=O)[C@H](CC(C)C)N(C)C(=O)[C@H](CC(C)C)NC(=O)[C@@H](CCC#N)OC(=O)[C@H](C)N(C)C1=O [C-35] (HELM PEPTIDE1{L.[meA].[N#CCC[C@@H](O[*:1])C(=O)[*:2]].L.[meL].L.[CN([C@@H](Cc1cn(Cc2cncc(F)c2)c2ccccc12)C(=O)[*:2])[*:1]]}$PEPTIDE1,PEPTIDE1,1:R1-7:R2$$$V2.0) | 108 | 373 | 2840 | 1250 | 207 | 126 | 1260 | 242 | – | – | – | – | – | –
CC(C)C[C@@H]1NC(=O)[C@H](Cc2cn(Cc3ccc(F)nc3)c3ccccc23)N(C)C(=O)[C@H](CC(C)C)NC(=O)[C@H](CC(C)C)N(C)C(=O)[C@H](CC(C)C)NC(=O)[C@@H](CCC#N)OC(=O)[C@H](C)N(C)C1=O [C-36] (HELM PEPTIDE1{L.[meA].[N#CCC[C@@H](O[*:1])C(=O)[*:2]].L.[meL].L.[CN([C@@H](Cc1cn(Cc2ccc(F)nc2)c2ccccc12)C(=O)[*:2])[*:1]]}$PEPTIDE1,PEPTIDE1,1:R1-7:R2$$$V2.0) | 94 | 358 | 2870 | 1090 | 351 | 345 | 1540 | 289 | – | – | – | – | – | –
CC(C)C[C@@H]1NC(=O)[C@H](Cc2cn(Cc3ccc(Br)cc3)c3ccccc23)N(C)C(=O)[C@H](CC(C)C)NC(=O)[C@H](CC(C)C)N(C)C(=O)[C@H](CC2CC2)NC(=O)[C@@H](CCC#N)OC(=O)[C@H](C)N(C)C1=O [C-38] (cyclo([Ala(cPr)][NMeL]L[NMeTrp(1-(4-Br-benzyl))]L[NMeA][Butanoyl(2R-oxy,4-CN)])) | 105 | 389 | 3700 | 6110 | 320 | 317 | 3880 | 957 | – | – | – | – | – | –
CC(C)C[C@@H]1NC(=O)[C@H](Cc2cn(Cc3ccc(Br)cc3)c3ccccc23)N(C)C(=O)[C@H](CC(C)C)NC(=O)[C@H](CC(C)C)N(C)C(=O)[C@H](CC(C)(C)C)NC(=O)[C@@H](CCC#N)OC(=O)[C@H](C)N(C)C1=O [C-39] (cyclo(L[NMeA][Butanoyl(2R-oxy,4-CN)][tBuAla][NMeL]L[NMeTrp(1-(4-Br-benzyl))])) | 67 | 265 | 3110 | 3290 | 301 | 330 | 3570 | 621 | – | – | – | – | – | –
CCCC[C@@H]1NC(=O)[C@@H](CCC#N)OC(=O)[C@H](C)N(C)C(=O)[C@H](CC(C)C)NC(=O)[C@H](Cc2cn(Cc3ccc(Br)cc3)c3ccccc23)N(C)C(=O)[C@H](CC(C)C)NC(=O)[C@H](CC(C)C)N(C)C1=O [C-40] (HELM PEPTIDE1{L.[meA].[N#CCC[C@@H](O[*:1])C(=O)[*:2]].[Nle].[meL].L.[CN([C@@H](Cc1cn(Cc2ccc(Br)cc2)c2ccccc12)C(=O)[*:2])[*:1]]}$PEPTIDE1,PEPTIDE1,1:R1-7:R2$$$V2.0) | 48 | 184 | 2280 | 3260 | 122 | 802 | 2150 | 327 | – | – | – | – | – | –
CC(C)C[C@@H]1NC(=O)[C@H](Cc2cn(Cc3ccc(Br)cc3)c3ccccc23)N(C)C(=O)[C@H](CC(C)C)NC(=O)[C@H](CC(C)C)N(C)C(=O)[C@H](CC(F)(F)F)NC(=O)[C@@H](CCC#N)OC(=O)[C@H](C)N(C)C1=O [C-41] (cyclo(L[NMeA][Butanoyl(2R-oxy,4-CN)][Abu(4,4,4-F3)][NMeL]L[NMeTrp(1-(4-Br-benzyl))])) | – | – | – | – | 32 | – | 832 | 73 | – | 19 | 77 | 1280 | 1010 | 23
CC(C)C[C@@H]1NC(=O)[C@H](Cc2cn(Cc3ccc(C(F)(F)F)cc3)c3ccccc23)N(C)C(=O)[C@H](CC(C)C)NC(=O)[C@H](CC(C)C)N(C)C(=O)[C@H](CC(C)C)NC(=O)[C@@H](CCC#N)OC(=O)[C@H](C)N(C)C1=O [C-42] (HELM PEPTIDE1{L.[meA].[N#CCC[C@@H](O[*:1])C(=O)[*:2]].L.[meL].L.[CN([C@@H](Cc1cn(Cc2ccc(C(F)(F)F)cc2)c2ccccc12)C(=O)[*:2])[*:1]]}$PEPTIDE1,PEPTIDE1,1:R1-7:R2$$$V2.0) | 37 | 357 | 3950 | 5470 | 167 | – | 3300 | 894 | 19900 | – | – | – | – | –
